Measured values taken from the NIST ThermoML archive (doi:10.1007/s10765-009-0602-6).

Test: molar heat capacity at constant volume; xn = mol fraction of the nth substance listed
Conditions: x1 = 0.2607

N [ammonia] + O
Conditions | molar heat capacity at constant volume [J/K/mol]
581.09 K, Fluid (supercritical or subcritical phases), Mass density=476.25 kg/m3, isochoric heat capacity | 67.71
581.18 K, Fluid (supercritical or subcritical phases), Mass density=476.25 kg/m3, isochoric heat capacity | 67.34
581.36 K, Fluid (supercritical or subcritical phases), Mass density=476.25 kg/m3, isochoric heat capacity | 66.28
581.54 K, Fluid (supercritical or subcritical phases), Mass density=476.25 kg/m3, isochoric heat capacity | 66.75
581.62 K, Fluid (supercritical or subcritical phases), Mass density=476.25 kg/m3, isochoric heat capacity | 66.08
584.62 K, Fluid (supercritical or subcritical phases), Mass density=476.25 kg/m3, isochoric heat capacity | 65.81
584.71 K, Fluid (supercritical or subcritical phases), Mass density=476.25 kg/m3, isochoric heat capacity | 65.01
584.8 K, Fluid (supercritical or subcritical phases), Mass density=476.25 kg/m3, isochoric heat capacity | 64.64
584.88 K, Fluid (supercritical or subcritical phases), Mass density=476.25 kg/m3, isochoric heat capacity | 65.32
584.95 K, Fluid (supercritical or subcritical phases), Mass density=456.58 kg/m3, isochoric heat capacity | 82.04
584.95 K, Liquid, Isochoric heat capacity | 82.04
584.97 K, Fluid (supercritical or subcritical phases), Mass density=476.25 kg/m3, isochoric heat capacity | 65.26
584.98 K, Fluid (supercritical or subcritical phases), Mass density=456.58 kg/m3, isochoric heat capacity | 80.98
585.15 K, Fluid (supercritical or subcritical phases), Mass density=476.25 kg/m3, isochoric heat capacity | 64.62
585.16 K, Fluid (supercritical or subcritical phases), Mass density=456.58 kg/m3, isochoric heat capacity | 80.57
585.31 K, Fluid (supercritical or subcritical phases), Mass density=120.03 kg/m3, isochoric heat capacity | 115.43
585.31 K, Liquid, Isochoric heat capacity | 115.43
585.34 K, Fluid (supercritical or subcritical phases), Mass density=120.03 kg/m3, isochoric heat capacity | 110.25
585.4 K, Fluid (supercritical or subcritical phases), Mass density=120.03 kg/m3, isochoric heat capacity | 96.96
585.42 K, Fluid (supercritical or subcritical phases), Mass density=456.58 kg/m3, isochoric heat capacity | 79.9
585.48 K, Fluid (supercritical or subcritical phases), Mass density=120.03 kg/m3, isochoric heat capacity | 94.87
585.5 K, Fluid (supercritical or subcritical phases), Mass density=456.58 kg/m3, isochoric heat capacity | 80.27
585.62 K, Fluid (supercritical or subcritical phases), Mass density=120.03 kg/m3, isochoric heat capacity | 76.93
585.68 K, Fluid (supercritical or subcritical phases), Mass density=456.58 kg/m3, isochoric heat capacity | 78.28
585.94 K, Fluid (supercritical or subcritical phases), Mass density=120.03 kg/m3, isochoric heat capacity | 64.29
586.02 K, Fluid (supercritical or subcritical phases), Mass density=120.03 kg/m3, isochoric heat capacity | 59.53
586.11 K, Fluid (supercritical or subcritical phases), Mass density=120.03 kg/m3, isochoric heat capacity | 58.12
586.2 K, Fluid (supercritical or subcritical phases), Mass density=120.03 kg/m3, isochoric heat capacity | 53.99
586.28 K, Fluid (supercritical or subcritical phases), Mass density=120.03 kg/m3, isochoric heat capacity | 54.52
586.37 K, Fluid (supercritical or subcritical phases), Mass density=120.03 kg/m3, isochoric heat capacity | 51.14
587.06 K, Fluid (supercritical or subcritical phases), Mass density=456.58 kg/m3, isochoric heat capacity | 75.4
587.24 K, Fluid (supercritical or subcritical phases), Mass density=456.58 kg/m3, isochoric heat capacity | 75.97
587.41 K, Fluid (supercritical or subcritical phases), Mass density=456.58 kg/m3, isochoric heat capacity | 75.31
587.5 K, Fluid (supercritical or subcritical phases), Mass density=456.58 kg/m3, isochoric heat capacity | 74.46
587.58 K, Fluid (supercritical or subcritical phases), Mass density=456.58 kg/m3, isochoric heat capacity | 76.18
594.14 K, Fluid (supercritical or subcritical phases), Mass density=147.43 kg/m3, isochoric heat capacity | 103.92
594.14 K, Liquid, Isochoric heat capacity | 103.92
594.15 K, Fluid (supercritical or subcritical phases), Mass density=147.43 kg/m3, isochoric heat capacity | 93.04
594.23 K, Fluid (supercritical or subcritical phases), Mass density=147.43 kg/m3, isochoric heat capacity | 91.23
594.32 K, Fluid (supercritical or subcritical phases), Mass density=147.43 kg/m3, isochoric heat capacity | 82.61
594.49 K, Fluid (supercritical or subcritical phases), Mass density=147.43 kg/m3, isochoric heat capacity | 80.43
594.58 K, Fluid (supercritical or subcritical phases), Mass density=120.03 kg/m3, isochoric heat capacity | 43.51
594.58 K, Fluid (supercritical or subcritical phases), Mass density=147.43 kg/m3, isochoric heat capacity | 67.31
594.66 K, Fluid (supercritical or subcritical phases), Mass density=120.03 kg/m3, isochoric heat capacity | 46.88
594.66 K, Fluid (supercritical or subcritical phases), Mass density=147.43 kg/m3, isochoric heat capacity | 62.24
594.75 K, Fluid (supercritical or subcritical phases), Mass density=120.03 kg/m3, isochoric heat capacity | 46.35
594.75 K, Fluid (supercritical or subcritical phases), Mass density=147.43 kg/m3, isochoric heat capacity | 60.82
594.78 K, Fluid (supercritical or subcritical phases), Mass density=120.03 kg/m3, isochoric heat capacity | 43.67
594.84 K, Fluid (supercritical or subcritical phases), Mass density=147.43 kg/m3, isochoric heat capacity | 66.35
594.92 K, Fluid (supercritical or subcritical phases), Mass density=147.43 kg/m3, isochoric heat capacity | 53.4
595.01 K, Fluid (supercritical or subcritical phases), Mass density=120.03 kg/m3, isochoric heat capacity | 47.77
595.09 K, Fluid (supercritical or subcritical phases), Mass density=147.43 kg/m3, isochoric heat capacity | 56.72
595.1 K, Fluid (supercritical or subcritical phases), Mass density=456.58 kg/m3, isochoric heat capacity | 70.87
595.16 K, Fluid (supercritical or subcritical phases), Mass density=376.89 kg/m3, isochoric heat capacity | 99.09
595.16 K, Liquid, Isochoric heat capacity | 99.09
595.18 K, Fluid (supercritical or subcritical phases), Mass density=147.43 kg/m3, isochoric heat capacity | 52.64
595.18 K, Fluid (supercritical or subcritical phases), Mass density=376.89 kg/m3, isochoric heat capacity | 96.84
595.18 K, Fluid (supercritical or subcritical phases), Mass density=456.58 kg/m3, isochoric heat capacity | 70.11
595.27 K, Fluid (supercritical or subcritical phases), Mass density=376.89 kg/m3, isochoric heat capacity | 95.54
595.35 K, Fluid (supercritical or subcritical phases), Mass density=456.58 kg/m3, isochoric heat capacity | 71.12
595.44 K, Fluid (supercritical or subcritical phases), Mass density=147.43 kg/m3, isochoric heat capacity | 50.03
595.44 K, Fluid (supercritical or subcritical phases), Mass density=376.89 kg/m3, isochoric heat capacity | 96.07
595.44 K, Fluid (supercritical or subcritical phases), Mass density=456.58 kg/m3, isochoric heat capacity | 68.76
595.53 K, Fluid (supercritical or subcritical phases), Mass density=376.89 kg/m3, isochoric heat capacity | 92.7
595.53 K, Fluid (supercritical or subcritical phases), Mass density=456.58 kg/m3, isochoric heat capacity | 71.34
595.61 K, Fluid (supercritical or subcritical phases), Mass density=376.89 kg/m3, isochoric heat capacity | 94.85
595.61 K, Fluid (supercritical or subcritical phases), Mass density=456.58 kg/m3, isochoric heat capacity | 68.53
595.7 K, Fluid (supercritical or subcritical phases), Mass density=147.43 kg/m3, isochoric heat capacity | 52.76
595.7 K, Fluid (supercritical or subcritical phases), Mass density=456.58 kg/m3, isochoric heat capacity | 70.96
595.78 K, Fluid (supercritical or subcritical phases), Mass density=376.89 kg/m3, isochoric heat capacity | 89.45
595.87 K, Fluid (supercritical or subcritical phases), Mass density=376.89 kg/m3, isochoric heat capacity | 91.17
595.96 K, Fluid (supercritical or subcritical phases), Mass density=376.89 kg/m3, isochoric heat capacity | 88.44
597.16 K, Fluid (supercritical or subcritical phases), Mass density=376.89 kg/m3, isochoric heat capacity | 87.9
597.35 K, Fluid (supercritical or subcritical phases), Mass density=160.07 kg/m3, isochoric heat capacity | 101.99
597.36 K, Liquid, Isochoric heat capacity | 101.99
597.38 K, Fluid (supercritical or subcritical phases), Mass density=160.07 kg/m3, isochoric heat capacity | 81.69
597.43 K, Fluid (supercritical or subcritical phases), Mass density=160.07 kg/m3, isochoric heat capacity | 69.47
597.5 K, Fluid (supercritical or subcritical phases), Mass density=376.89 kg/m3, isochoric heat capacity | 85.95
597.53 K, Fluid (supercritical or subcritical phases), Mass density=160.07 kg/m3, isochoric heat capacity | 62.62
597.56 K, Fluid (supercritical or subcritical phases), Mass density=342.18 kg/m3, isochoric heat capacity | 110.99
597.56 K, Liquid, Isochoric heat capacity | 110.99
